What was measured:
[1] = biological target: Mitogen-activated protein kinase kinase kinase 11 (Homo sapiens) (UniProt Q16584); conditions: Compound concentration 1000.0 nM
[2] = biological target: Cyclin-dependent kinase 16 (Homo sapiens) (UniProt Q00536); conditions: Compound concentration 1000.0 nM
[3] = biological target: Rho-associated protein kinase 2 (Homo sapiens) (UniProt O75116); conditions: Compound concentration 1000.0 nM
[4] = biological target: NUAK family SNF1-like kinase 1 (Homo sapiens) (UniProt O60285); conditions: Compound concentration 1000.0 nM
[5] = biological target: Cyclin-dependent kinase 8 (Homo sapiens) (UniProt P49336); conditions: Compound concentration 1000.0 nM
[6] = biological target: Serine/threonine-protein kinase PLK4 (Homo sapiens) (UniProt O00444); conditions: Compound concentration 1000.0 nM
[7] = biological target: Calcium/calmodulin-dependent protein kinase kinase 1 (Homo sapiens) (UniProt Q8N5S9); conditions: Compound concentration 1000.0 nM
[8] = biological target: Testis-specific serine/threonine-protein kinase 1 (Homo sapiens) (UniProt Q9BXA7); conditions: Compound concentration 1000.0 nM
Chain of Testis-specific serine/threonine-protein kinase 1 (Homo sapiens) (Q9BXA7 whole entry): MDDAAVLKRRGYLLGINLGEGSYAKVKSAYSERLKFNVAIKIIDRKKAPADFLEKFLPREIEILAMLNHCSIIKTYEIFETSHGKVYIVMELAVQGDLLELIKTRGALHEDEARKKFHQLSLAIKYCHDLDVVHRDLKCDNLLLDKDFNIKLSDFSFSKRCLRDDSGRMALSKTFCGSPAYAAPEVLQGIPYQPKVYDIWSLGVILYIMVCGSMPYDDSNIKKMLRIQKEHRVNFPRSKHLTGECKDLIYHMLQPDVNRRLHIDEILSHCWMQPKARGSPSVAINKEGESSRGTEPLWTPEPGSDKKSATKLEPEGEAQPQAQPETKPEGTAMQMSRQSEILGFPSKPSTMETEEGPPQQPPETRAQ

[9] = biological target: Ribosomal protein S6 kinase alpha-2 (Homo sapiens) (UniProt Q15349); conditions: Compound concentration 1000.0 nM
[10] = system: Mast/stem cell growth factor receptor Kit (Homo sapiens), P10721 [V559D,T670I]; conditions: Compound concentration 1000.0 nM
[11] = system: Tyrosine-protein kinase ABL1 (Homo sapiens), P00519 [T315I]; conditions: Compound concentration 1000.0 nM
[12] = biological target: D(4) dopamine receptor (Homo sapiens) (UniProt P21917); conditions: Compound concentration 10.0 uM
[13] = system: Mast/stem cell growth factor receptor Kit (Homo sapiens), P10721 [D816H]; conditions: Compound concentration 1000.0 nM
[14] = biological target: Transient receptor potential cation channel subfamily M member 6 (Homo sapiens) (UniProt Q9BX84); conditions: Compound concentration 1000.0 nM
[15] = biological target: T1, 5-hydroxytryptamine receptor 2C (Homo sapiens) (UniProt P28335); assay: 5-HT2C (h) Eurofins-Cerep binding assay; set-up: ligand concentration 1 nM; conditions: filed as antagonist, Compound concentration 10.0 uM
T1 sequence (whole entry): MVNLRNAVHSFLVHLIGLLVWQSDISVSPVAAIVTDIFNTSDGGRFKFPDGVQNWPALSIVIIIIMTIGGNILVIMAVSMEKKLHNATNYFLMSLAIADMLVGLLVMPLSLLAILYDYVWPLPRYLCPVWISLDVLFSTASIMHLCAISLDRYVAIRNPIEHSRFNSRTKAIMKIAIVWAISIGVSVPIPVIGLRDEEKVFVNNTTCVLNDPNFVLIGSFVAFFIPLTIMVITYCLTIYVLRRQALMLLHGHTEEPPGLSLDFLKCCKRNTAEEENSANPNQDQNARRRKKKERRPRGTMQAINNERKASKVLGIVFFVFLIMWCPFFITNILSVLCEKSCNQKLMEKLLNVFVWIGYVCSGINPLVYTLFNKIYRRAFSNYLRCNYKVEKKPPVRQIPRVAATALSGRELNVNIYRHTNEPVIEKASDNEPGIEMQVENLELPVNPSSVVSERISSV

[16] = biological target: 5-hydroxytryptamine receptor 1B (Homo sapiens) (UniProt P28222); conditions: Compound concentration 10.0 uM
[17] = biological target: Phosphatidylinositol 4,5-bisphosphate 3-kinase catalytic subunit gamma isoform (Homo sapiens) (UniProt P48736); conditions: Compound concentration 1000.0 nM
[18] = biological target: Casein kinase I isoform gamma-2 (Homo sapiens) (UniProt P78368); conditions: Compound concentration 1000.0 nM
[19] = biological target: Serine/threonine-protein kinase 24 (Homo sapiens) (UniProt Q9Y6E0); conditions: Compound concentration 1000.0 nM
[20] = biological target: Activin receptor type-1B (Homo sapiens) (UniProt P36896); conditions: Compound concentration 1000.0 nM
Chain of Activin receptor type-1B (Homo sapiens) (P36896 whole entry): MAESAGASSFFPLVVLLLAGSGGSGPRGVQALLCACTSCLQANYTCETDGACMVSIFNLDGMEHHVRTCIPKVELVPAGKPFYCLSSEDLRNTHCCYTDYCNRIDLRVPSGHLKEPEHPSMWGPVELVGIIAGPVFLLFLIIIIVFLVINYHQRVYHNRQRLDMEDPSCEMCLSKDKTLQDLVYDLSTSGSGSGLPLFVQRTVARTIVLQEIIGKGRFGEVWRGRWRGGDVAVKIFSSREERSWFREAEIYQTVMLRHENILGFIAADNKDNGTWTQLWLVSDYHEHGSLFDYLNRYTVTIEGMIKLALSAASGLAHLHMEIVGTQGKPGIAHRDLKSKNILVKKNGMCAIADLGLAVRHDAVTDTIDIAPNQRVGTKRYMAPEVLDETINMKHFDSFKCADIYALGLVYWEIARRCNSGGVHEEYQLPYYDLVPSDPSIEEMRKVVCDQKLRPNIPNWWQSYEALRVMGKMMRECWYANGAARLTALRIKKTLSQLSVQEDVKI

[21] = biological target: Ribosomal protein S6 kinase alpha-5 (Homo sapiens) (UniProt O75582); conditions: Compound concentration 1000.0 nM
Chain of Ribosomal protein S6 kinase alpha-5 (Homo sapiens) (O75582 whole entry, looked up): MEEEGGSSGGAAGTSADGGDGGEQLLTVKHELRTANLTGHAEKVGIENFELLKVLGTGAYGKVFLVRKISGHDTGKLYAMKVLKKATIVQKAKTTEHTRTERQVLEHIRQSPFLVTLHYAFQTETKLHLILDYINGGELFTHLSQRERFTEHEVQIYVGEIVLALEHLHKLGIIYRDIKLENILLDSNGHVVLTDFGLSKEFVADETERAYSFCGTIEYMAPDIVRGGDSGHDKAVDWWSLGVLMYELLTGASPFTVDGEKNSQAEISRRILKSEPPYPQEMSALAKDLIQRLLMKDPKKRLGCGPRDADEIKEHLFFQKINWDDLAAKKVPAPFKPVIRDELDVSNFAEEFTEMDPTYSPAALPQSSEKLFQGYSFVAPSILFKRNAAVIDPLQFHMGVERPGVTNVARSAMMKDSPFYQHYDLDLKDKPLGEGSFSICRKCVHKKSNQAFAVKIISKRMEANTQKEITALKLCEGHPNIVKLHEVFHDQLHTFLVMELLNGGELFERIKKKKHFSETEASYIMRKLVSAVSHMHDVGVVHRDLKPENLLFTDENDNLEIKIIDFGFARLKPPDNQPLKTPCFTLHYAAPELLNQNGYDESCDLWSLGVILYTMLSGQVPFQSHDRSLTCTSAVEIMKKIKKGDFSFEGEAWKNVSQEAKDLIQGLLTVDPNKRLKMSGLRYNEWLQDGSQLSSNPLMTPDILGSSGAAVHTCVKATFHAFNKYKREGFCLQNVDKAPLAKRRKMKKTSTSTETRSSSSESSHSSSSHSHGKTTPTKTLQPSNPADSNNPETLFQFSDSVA

[22] = biological target: Non-receptor tyrosine-protein kinase TYK2 (Homo sapiens) (UniProt P29597); conditions: Compound concentration 1000.0 nM
Chain of Non-receptor tyrosine-protein kinase TYK2 (Homo sapiens) (P29597 whole entry): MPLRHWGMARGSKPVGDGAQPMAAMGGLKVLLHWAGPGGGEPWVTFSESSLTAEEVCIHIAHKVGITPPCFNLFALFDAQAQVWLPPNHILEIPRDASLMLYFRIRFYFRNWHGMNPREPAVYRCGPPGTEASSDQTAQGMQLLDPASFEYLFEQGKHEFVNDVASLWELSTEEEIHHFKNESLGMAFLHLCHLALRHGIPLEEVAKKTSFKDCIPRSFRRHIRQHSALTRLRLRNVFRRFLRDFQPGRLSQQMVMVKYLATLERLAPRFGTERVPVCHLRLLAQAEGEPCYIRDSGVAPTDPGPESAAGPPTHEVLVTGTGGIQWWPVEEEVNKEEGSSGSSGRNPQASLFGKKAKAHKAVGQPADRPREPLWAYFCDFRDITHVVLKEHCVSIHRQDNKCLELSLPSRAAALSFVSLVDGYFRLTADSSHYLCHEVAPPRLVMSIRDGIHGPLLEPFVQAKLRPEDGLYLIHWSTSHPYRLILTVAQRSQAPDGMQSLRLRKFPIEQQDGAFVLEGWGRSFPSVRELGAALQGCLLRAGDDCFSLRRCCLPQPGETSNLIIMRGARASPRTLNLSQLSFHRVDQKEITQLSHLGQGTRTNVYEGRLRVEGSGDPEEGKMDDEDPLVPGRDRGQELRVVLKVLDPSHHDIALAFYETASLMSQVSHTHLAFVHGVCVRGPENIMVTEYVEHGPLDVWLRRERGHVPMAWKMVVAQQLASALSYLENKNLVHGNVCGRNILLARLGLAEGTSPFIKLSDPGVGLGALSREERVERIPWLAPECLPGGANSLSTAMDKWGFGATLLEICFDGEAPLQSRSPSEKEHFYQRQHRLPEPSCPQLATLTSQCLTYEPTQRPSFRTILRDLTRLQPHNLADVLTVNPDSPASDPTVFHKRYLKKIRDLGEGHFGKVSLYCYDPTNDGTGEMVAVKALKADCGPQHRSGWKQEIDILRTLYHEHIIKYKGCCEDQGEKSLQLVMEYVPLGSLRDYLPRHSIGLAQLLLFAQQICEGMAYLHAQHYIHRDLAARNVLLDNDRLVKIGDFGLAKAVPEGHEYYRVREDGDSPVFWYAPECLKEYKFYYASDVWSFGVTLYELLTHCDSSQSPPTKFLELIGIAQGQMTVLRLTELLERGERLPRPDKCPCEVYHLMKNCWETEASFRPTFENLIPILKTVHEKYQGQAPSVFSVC

[23] = biological target: Serine/threonine-protein kinase TAO3 (Homo sapiens) (UniProt Q9H2K8); conditions: Compound concentration 1000.0 nM
[24] = biological target: Vasoactive intestinal polypeptide receptor 1 (Homo sapiens) (UniProt P32241); assay: VPAC1 (VIP1) (h) Eurofins-Cerep binding assay; conditions: filed as agonist, Compound concentration 10.0 uM
[25] = biological target: Interleukin-1 receptor-associated kinase 4 (Homo sapiens) (UniProt Q9NWZ3); conditions: Compound concentration 1000.0 nM
Chain of Interleukin-1 receptor-associated kinase 4 (Homo sapiens) (Q9NWZ3 whole entry): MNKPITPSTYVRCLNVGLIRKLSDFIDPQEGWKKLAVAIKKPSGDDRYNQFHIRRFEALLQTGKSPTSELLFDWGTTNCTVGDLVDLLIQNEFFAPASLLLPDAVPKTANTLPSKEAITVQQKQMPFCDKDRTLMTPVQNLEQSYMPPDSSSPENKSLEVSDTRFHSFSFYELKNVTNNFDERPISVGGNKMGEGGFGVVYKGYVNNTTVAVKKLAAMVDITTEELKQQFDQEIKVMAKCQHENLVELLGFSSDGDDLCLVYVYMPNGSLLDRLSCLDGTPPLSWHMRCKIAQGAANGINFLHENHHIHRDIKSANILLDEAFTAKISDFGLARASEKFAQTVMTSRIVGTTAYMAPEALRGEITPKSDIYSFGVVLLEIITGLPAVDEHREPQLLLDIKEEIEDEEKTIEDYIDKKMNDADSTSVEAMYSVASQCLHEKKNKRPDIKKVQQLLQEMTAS

[26] = biological target: Cholecystokinin receptor type A (Homo sapiens) (UniProt P32238); assay: CCK1 (CCKA) (h) Eurofins-Cerep binding assay; conditions: filed as agonist, Compound concentration 10.0 uM
[27] = biological target: Serine/threonine-protein kinase/endoribonuclease IRE1 (Homo sapiens) (UniProt O75460); conditions: Compound concentration 1000.0 nM
[28] = biological target: Dual specificity tyrosine-phosphorylation-regulated kinase 1A (Homo sapiens) (UniProt Q13627); conditions: Compound concentration 1000.0 nM
[29] = biological target: Serine/threonine-protein kinase N2 (Homo sapiens) (UniProt Q16513); conditions: Compound concentration 1000.0 nM
[30] = biological target: T2, Muscarinic acetylcholine receptor M5 (Homo sapiens) (UniProt P08912); assay: M5 (h) Eurofins-Cerep binding assay; set-up: ligand concentration 0.3 nM; conditions: filed as antagonist, Compound concentration 10.0 uM
T2 sequence (whole entry): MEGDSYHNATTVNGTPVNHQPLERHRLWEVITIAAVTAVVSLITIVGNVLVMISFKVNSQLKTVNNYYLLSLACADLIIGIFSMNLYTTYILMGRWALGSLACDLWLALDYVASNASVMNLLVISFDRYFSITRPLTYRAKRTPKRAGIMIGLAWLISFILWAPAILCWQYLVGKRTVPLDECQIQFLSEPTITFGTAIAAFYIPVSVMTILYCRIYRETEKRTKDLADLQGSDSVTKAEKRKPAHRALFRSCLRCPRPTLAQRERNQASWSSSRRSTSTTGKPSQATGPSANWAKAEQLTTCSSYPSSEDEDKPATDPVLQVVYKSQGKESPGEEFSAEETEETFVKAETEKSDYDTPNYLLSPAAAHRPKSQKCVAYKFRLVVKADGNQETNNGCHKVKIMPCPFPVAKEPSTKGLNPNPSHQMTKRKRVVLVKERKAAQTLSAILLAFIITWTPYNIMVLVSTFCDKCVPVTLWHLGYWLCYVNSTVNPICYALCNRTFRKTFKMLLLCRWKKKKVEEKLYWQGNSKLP

[31] = biological target: Serine/threonine-protein kinase PAK 5 (Homo sapiens) (UniProt Q9P286); conditions: Compound concentration 1000.0 nM

Chain of Rho-associated protein kinase 2 (Homo sapiens) (O75116 whole entry, looked up): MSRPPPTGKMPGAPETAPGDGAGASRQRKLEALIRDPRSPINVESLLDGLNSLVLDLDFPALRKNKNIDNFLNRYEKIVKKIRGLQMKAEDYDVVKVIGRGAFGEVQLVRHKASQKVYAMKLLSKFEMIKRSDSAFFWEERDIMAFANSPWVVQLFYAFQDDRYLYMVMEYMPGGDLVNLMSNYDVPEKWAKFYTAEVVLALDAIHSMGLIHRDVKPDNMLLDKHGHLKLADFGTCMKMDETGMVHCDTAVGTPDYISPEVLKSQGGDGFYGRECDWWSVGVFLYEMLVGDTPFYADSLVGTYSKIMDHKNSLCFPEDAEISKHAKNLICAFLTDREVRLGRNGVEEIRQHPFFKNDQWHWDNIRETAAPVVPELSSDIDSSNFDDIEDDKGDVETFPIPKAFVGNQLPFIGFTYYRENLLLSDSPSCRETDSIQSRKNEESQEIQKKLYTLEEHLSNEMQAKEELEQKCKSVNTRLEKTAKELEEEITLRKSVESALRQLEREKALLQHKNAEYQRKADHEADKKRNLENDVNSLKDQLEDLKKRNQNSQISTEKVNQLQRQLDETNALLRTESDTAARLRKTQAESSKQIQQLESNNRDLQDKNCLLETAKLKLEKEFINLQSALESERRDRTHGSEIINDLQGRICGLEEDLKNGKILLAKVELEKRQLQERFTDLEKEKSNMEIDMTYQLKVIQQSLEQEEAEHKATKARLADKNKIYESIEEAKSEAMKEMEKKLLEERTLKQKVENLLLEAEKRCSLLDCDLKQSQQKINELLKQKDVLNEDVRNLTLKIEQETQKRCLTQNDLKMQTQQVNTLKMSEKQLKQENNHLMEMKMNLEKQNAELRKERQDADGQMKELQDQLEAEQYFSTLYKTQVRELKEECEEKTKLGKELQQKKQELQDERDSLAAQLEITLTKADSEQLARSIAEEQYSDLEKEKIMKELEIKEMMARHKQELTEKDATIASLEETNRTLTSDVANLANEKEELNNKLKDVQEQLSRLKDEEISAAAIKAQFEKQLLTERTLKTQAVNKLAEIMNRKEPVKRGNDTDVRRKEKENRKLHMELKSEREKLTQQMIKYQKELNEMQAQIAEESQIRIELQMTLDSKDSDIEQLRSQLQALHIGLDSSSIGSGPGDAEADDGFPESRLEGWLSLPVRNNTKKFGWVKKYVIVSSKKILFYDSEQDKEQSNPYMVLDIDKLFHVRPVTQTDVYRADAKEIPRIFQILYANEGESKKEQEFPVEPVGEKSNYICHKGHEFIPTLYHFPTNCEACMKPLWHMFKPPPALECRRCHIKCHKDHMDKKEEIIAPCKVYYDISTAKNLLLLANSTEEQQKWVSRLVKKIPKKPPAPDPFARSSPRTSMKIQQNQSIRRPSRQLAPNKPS

With `COc1ccc2c(c1)O[C@H](c1ccc(OC)c(OC)c1)C[C@@H]2NC(=O)C1(c2ccc3c(c2)OC(F)(F)O3)CC1` [A-1596584] as the molecule, how does the residual activity [1] read?
The residual activity was 100%.

What about the residual activity [2] of the same molecule?
The residual activity was 100%.

What about the residual activity [3] of the same molecule?
The residual activity was 88%.

And the residual activity [4]?
The residual activity was 95%.

And the residual activity [5]?
Its residual activity is 100%.

What about the residual activity [6] of the same molecule?
The residual activity was 89%.

What about the residual activity [7] of the same molecule?
Its residual activity is 100%.

And the residual activity [8]?
Its residual activity is 100%.

And the residual activity [9]?
Its residual activity is 100%.

And the residual activity [10]?
The residual activity was 100%.

And the residual activity [11]?
The residual activity was 100%.

What about the inhibition [12] of the same molecule?
Its inhibition is -6.5%.

And the residual activity [13]?
Its residual activity is 100%.

What about the residual activity [14] of the same molecule?
Its residual activity is 84%.

What about the % Inhibition of Control Specific Binding (Mean n=2) [15] of the same molecule?
The % Inhibition of Control Specific Binding (Mean n=2) was 1.2%.

What about the inhibition [16] of the same molecule?
Its inhibition is -1%.

What about the residual activity [17] of the same molecule?
Its residual activity is 74%.

What about the residual activity [18] of the same molecule?
The residual activity was 95%.

And the residual activity [19]?
The residual activity was 92%.

What about the residual activity [20] of the same molecule?
The residual activity was 82%.

What about the residual activity [21] of the same molecule?
The residual activity was 100%.

And the residual activity [22]?
The residual activity was 85%.

What about the residual activity [23] of the same molecule?
The residual activity was 100%.

What about the % Inhibition of Control Specific Binding (Mean n=2) [24] of the same molecule?
Its % Inhibition of Control Specific Binding (Mean n=2) is 5%.

And the residual activity [25]?
The residual activity was 100%.

What about the % Inhibition of Control Specific Binding (Mean n=2) [26] of the same molecule?
The % Inhibition of Control Specific Binding (Mean n=2) was -38.6%.

What about the residual activity [27] of the same molecule?
The residual activity was 100%.

And the residual activity [28]?
The residual activity was 100%.

What about the residual activity [29] of the same molecule?
Its residual activity is 100%.

What about the % Inhibition of Control Specific Binding (Mean n=2) [30] of the same molecule?
The % Inhibition of Control Specific Binding (Mean n=2) was -0.7%.

And the residual activity [31]?
The residual activity was 100%.

With `COc1ccc2c(c1)O[C@@H](c1ccc(OC)c(OC)c1)C[C@H]2NC(=O)C1(c2ccc3c(c2)OC(F)(F)O3)CC1` [A-1596586] as the molecule, how does the residual activity [1] read?
The residual activity was 100%.

And the residual activity [2]?
The residual activity was 88%.

And the residual activity [3]?
Its residual activity is 78%.

What about the residual activity [4] of the same molecule?
Its residual activity is 86%.

What about the residual activity [5] of the same molecule?
Its residual activity is 100%.

And the residual activity [6]?
The residual activity was 84%.

And the residual activity [7]?
The residual activity was 89%.

And the residual activity [8]?
The residual activity was 100%.

What about the residual activity [9] of the same molecule?
Its residual activity is 90%.

What about the residual activity [10] of the same molecule?
The residual activity was 99%.

What about the residual activity [11] of the same molecule?
Its residual activity is 82%.

And the inhibition [12]?
The inhibition was -7.47%.

And the residual activity [13]?
The residual activity was 94%.

And the residual activity [14]?
Its residual activity is 82%.

What about the % Inhibition of Control Specific Binding (Mean n=2) [15] of the same molecule?
Its % Inhibition of Control Specific Binding (Mean n=2) is 6.4%.

What about the inhibition [16] of the same molecule?
Its inhibition is -0.84%.

What about the residual activity [17] of the same molecule?
Its residual activity is 74%.

What about the residual activity [18] of the same molecule?
The residual activity was 88%.

What about the residual activity [19] of the same molecule?
The residual activity was 96%.

What about the residual activity [20] of the same molecule?
Its residual activity is 67%.

And the residual activity [21]?
Its residual activity is 100%.

And the residual activity [22]?
Its residual activity is 65%.

And the residual activity [23]?
The residual activity was 91%.

And the % Inhibition of Control Specific Binding (Mean n=2) [24]?
The % Inhibition of Control Specific Binding (Mean n=2) was 10.4%.

What about the residual activity [25] of the same molecule?
Its residual activity is 82%.

What about the % Inhibition of Control Specific Binding (Mean n=2) [26] of the same molecule?
The % Inhibition of Control Specific Binding (Mean n=2) was -51.6%.

What about the residual activity [27] of the same molecule?
Its residual activity is 100%.

And the residual activity [28]?
Its residual activity is 80%.

What about the residual activity [29] of the same molecule?
Its residual activity is 100%.

And the % Inhibition of Control Specific Binding (Mean n=2) [30]?
The % Inhibition of Control Specific Binding (Mean n=2) was 35.7%.

What about the residual activity [31] of the same molecule?
The residual activity was 75%.

From ChEMBL document CHEMBL4507262, “Data for DCP probe A-1596586” (2021)
